Results reported in patent publication US20060069132A1, “Azolecarboxamide herbicides” (priority 2004, published 2006).

How the values were obtained:
barnyardgrass = test: Test B pre-/postemergence herbicide test; format: in vivo, Echinochloa crus-galli
Summary of the method: (§1)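 Response was scored visually 13 to 15 days after treatment against untreated greenhouse controls, 0 meaning no effect and 100 complete control. Formulations (solvent mixture plus surfactant) went onto soil after planting, onto foliage of 1- to 4-leaf plants, and onto 2-leaf plants in a flooded paddy set including rice and barnyardgrass.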

Surinam grass = test: Test B pre-/postemergence herbicide test; format: in vivo, Urochloa decumbens
Summary of the method: (§2)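 Visual rating, 0 (no effect) to 100 (complete control), versus untreated controls after 13–15 d in greenhouse. Pre- and postemergence applications (postemergence plants 2–18 cm, 1–4 leaves); flooded paddy arm at 2-leaf stage. Compounds in non-phytotoxic solvent plus surfactant.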

cocklebur = test: Test B pre-/postemergence herbicide test; format: in vivo, Xanthium strumarium
Summary of the method: as §1

corn = test: Test B pre-/postemergence herbicide test; format: in vivo, Zea mays
Summary of the method: as §2

large crabgrass = test: Test B pre-/postemergence herbicide test; format: in vivo, Digitaria sanguinalis
Summary of the method: as §2

giant foxtail = test: Test B pre-/postemergence herbicide test; format: in vivo, Setaria faberi
Summary of the method: as §2

morningglory = test: Test B pre-/postemergence herbicide test; format: in vivo, Ipomoea coccinea
Summary of the method: as §1

pigweed = test: Test B pre-/postemergence herbicide test; format: in vivo, Amaranthus retroflexus
Summary of the method: as §2

velvetleaf = test: Test B pre-/postemergence herbicide test; format: in vivo, Abutilon theophrasti
Summary of the method: as §2

blackgrass = test: Test B postemergence herbicide test; format: in vivo, Alopecurus myosuroides
Summary of the method: (§3)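 Visual control ratings, 0–100 versus untreated controls, taken after 13 to 15 days in the greenhouse. Blackgrass received a postemergence spray at the 1- to 4-leaf stage (2–18 cm); ducksalad, umbrella sedge and barnyardgrass were flooded-paddy treated at 2 leaves.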

wheat = test: Test B postemergence herbicide test; format: in vivo, Triticum aestivum; set-up: key to Wheat plant response rating: 0 = no effect, 100 = complete control
Summary of the method: (§4)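 Treated at 2-leaf (paddy) or 1–4-leaf, 2–18 cm (postemergence); greenhouse 13–15 d; visual score vs control, 0 none to 100 complete control; dash = not tested.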

wild oat = test: Test B postemergence herbicide test; format: in vivo, Avena fatua
Summary of the method: as §4

rice = test: Test B flooded paddy test; format: in vivo, Oryza sativa; settings: 1000 g ai/ha, scale 0 to 100 (0 no effect, 100 complete control)
Summary of the method: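 Read-out: visual comparison with controls, scored 0 to 100, where 100 means complete control and 0 no effect. Formulated chemicals were applied postemergence to plants 2–18 cm tall (1- to 4-leaf), or to flooded-paddy plants at the 2-leaf stage, then held 13 to 15 days under glass.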

[1] = system: small flower umbrella sedge; test: Test B flooded paddy test; format: in vivo, Cyperus difformis; settings: 1000 g ai/ha, scale 0 to 100 (0 no effect, 100 complete control)
Summary of the method: as §3

ducksalad = test: Test B flooded paddy test; format: in vivo, Heteranthera limosa; settings: 1000 g ai/ha, scale 0 to 100 (0 no effect, 100 complete control)
Summary of the method: as §3

[2] = 125 g ai/ha; 0 = no effect, 100 = complete control; preemergence
[3] = 500 g ai/ha; visual rating 0-100, 0 no effect, 100 complete control; preemergence
[4] = postemergence, 125 g ai/ha; visual rating, scale 0 (no effect) to 100 (complete control)
[5] = postemergence, 500 g ai/ha; visual rating, scale 0 (no effect) to 100 (complete control)
[6] = 125 g ai/ha; visual rating, scale 0 (no effect) to 100 (complete control); postemergence
[7] = 500 g ai/ha; visual rating, 0 = no effect, 100 = complete control; preemergence
[8] = postemergence, 500 g ai/ha; scale 0 to 100, 0 is no effect, 100 is complete control

CCc1nc(C(C)(C)C)sc1C(=O)Nc1cccc(C(=O)N(CC)CC)c1 [Compound 205]
80: Plant response rating, Surinam Grass (Surinam grass; [3]) | Cocklebur plant response rating (cocklebur; [5]) | Plant response rating, Velvetleaf (velvetleaf; [3])
100: Plant response rating, Foxtail, Giant (giant foxtail; [3]) | Pigweed plant response rating (0 to 100 scale) (pigweed; [2]) | Plant response rating, Pigweed (pigweed; [3])
10: Barnyardgrass plant response rating (barnyardgrass; [4]) | Cocklebur plant response rating (0 to 100 scale) (cocklebur; [2]) | Corn plant response rating (0 to 100 scale) (corn; [2]) | Crabgrass, Large plant response rating (large crabgrass; [4]) | Wheat plant response rating (wheat; [4])
20: Barnyardgrass plant response rating (barnyardgrass; [5]) | Surinam Grass plant response rating (0 to 100 scale) (Surinam grass; [2]) | Surinam Grass plant response rating (Surinam grass; [4]) | Surinam Grass plant response rating (Surinam grass; [5]) | Plant response rating, Cocklebur (cocklebur; [3]) | Corn plant response rating (corn; [4]) | Corn plant response rating (corn; [5]) | Crabgrass, Large plant response rating (large crabgrass; [5]) | Foxtail, Giant plant response rating (giant foxtail; [4]) | Velvetleaf plant response rating (velvetleaf; [4]) | Blackgrass plant response rating (blackgrass; [5]) | Wheat plant response rating (wheat; [5]) | Oat, Wild plant response rating (wild oat; [4])
40: Cocklebur plant response rating (cocklebur; [4]) | Plant response rating, Corn (corn; [3]) | Pigweed plant response rating (pigweed; [4]) | Velvetleaf plant response rating (velvetleaf; [5])
60: Crabgrass, Large plant response rating (0 to 100 scale) (large crabgrass; [2]) | Rice plant response rating (rice; visual rating, 13 to 15 days) | Sedge, Umbrella plant response rating ([1]; visual rating, 13 to 15 days)
90: Plant response rating, Barnyardgrass (barnyardgrass; [3]) | Plant response rating, Crabgrass, Large (large crabgrass; [3])
50: Barnyardgrass plant response rating (0 to 100 scale) (barnyardgrass; [2]) | Foxtail, Giant plant response rating (0 to 100 scale) (giant foxtail; [2]) | Morningglory plant response rating (morningglory; [5]) | Pigweed plant response rating (pigweed; [5]) | Ducksalad plant response rating (ducksalad; visual rating, 13 to 15 days)
30: Foxtail, Giant plant response rating (giant foxtail; [5]) | Plant response rating, Morningglory (morningglory; [3]) | Morningglory plant response rating (morningglory; [4]) | Velvetleaf plant response rating (0 to 100 scale) (velvetleaf; [2]) | Oat, Wild plant response rating (wild oat; [5])
0: Morningglory plant response rating (0 to 100 scale) (morningglory; [2]) | Blackgrass plant response rating (blackgrass; [4])

CCn1nc(C2(C)CC2)cc1C(=O)Nc1cc(C(=O)N2CC=CC2)ccc1F [Compound 301]
50: Cocklebur plant response rating (cocklebur; [8]) | Corn plant response rating (corn; [6]) | Corn plant response rating (corn; [8])
70: Foxtail, Giant plant response rating (0 to 100 scale) (giant foxtail; [2])
100: Plant response rating, Barnyardgrass (barnyardgrass; [7]) | Plant response rating, Surinam Grass (Surinam grass; [7]) | Crabgrass, Large plant response rating (0 to 100 scale) (large crabgrass; [2]) | Plant response rating, Crabgrass, Large (large crabgrass; [7]) | Pigweed plant response rating (0 to 100 scale) (pigweed; [2]) | Plant response rating, Pigweed (pigweed; [7]) | Plant response rating, Velvetleaf (velvetleaf; [7]) | Velvetleaf plant response rating (velvetleaf; [8])
0: Cocklebur plant response rating (0 to 100 scale) (cocklebur; [2]) | Plant response rating, Cocklebur (cocklebur; [7]) | Corn plant response rating (0 to 100 scale) (corn; [2])
80: Plant response rating, Morningglory (morningglory; [7]) | Pigweed plant response rating (pigweed; [6])
60: Barnyardgrass plant response rating (0 to 100 scale) (barnyardgrass; [2]) | Barnyardgrass plant response rating (barnyardgrass; [8]) | Crabgrass, Large plant response rating (large crabgrass; [8]) | Morningglory plant response rating (morningglory; [6])
30: Surinam Grass plant response rating (Surinam grass; [8]) | Velvetleaf plant response rating (velvetleaf; [6])
10: Surinam Grass plant response rating (Surinam grass; [6]) | Cocklebur plant response rating (cocklebur; [6]) | Plant response rating, Corn (corn; [7]) | Foxtail, Giant plant response rating (giant foxtail; [6]) | Morningglory plant response rating (0 to 100 scale) (morningglory; [2]) | Blackgrass plant response rating (blackgrass; [6]) | Wheat plant response rating (wheat; [6])
90: Surinam Grass plant response rating (0 to 100 scale) (Surinam grass; [2]) | Plant response rating, Foxtail, Giant (giant foxtail; [7]) | Morningglory plant response rating (morningglory; [8]) | Pigweed plant response rating (pigweed; [8]) | Rice plant response rating (rice) | Sedge, Umbrella plant response rating [1] | Ducksalad plant response rating (ducksalad)
20: Barnyardgrass plant response rating (barnyardgrass; [6]) | Crabgrass, Large plant response rating (large crabgrass; [6]) | Foxtail, Giant plant response rating (giant foxtail; [8]) | Wheat plant response rating (wheat; [8]) | Oat, Wild plant response rating (wild oat; [6])
40: Blackgrass plant response rating (blackgrass; [8]) | Oat, Wild plant response rating (wild oat; [8])
